Source: PMC9049325 (ChemMedChem, 2020)
Like-named read-outs stand apart in the source and are kept apart here.

Legend:
WT p97 [1] = target: T1, WT p97 (Homo sapiens, UniProt P55072); assay: p97 ATPase activity assay, WT; type: biochemical
p97 T688A mutant = p97 T688A mutant (Homo sapiens, UniProt P55072, T688A); assay: p97 ATPase activity assay, T688A mutant; type: biochemical
[2] = target: p97 D649A/T688A double mutant; assay: p97 ATPase activity assay, D649A/T688A double mutant; type: biochemical; conditions: protein concentration and reaction time each increased 4-fold
WT p97 [3] = target: T1, WT p97; assay: Thermal shift assay; type: binding; conditions: TSA, WT compared with N660K and T688A
p97 ATPase = p97 ATPase (Homo sapiens, UniProt P55072); assay: Steady-state kinetic analysis of p97 ATPase inhibition; type: biochemical; conditions: ten ATP concentrations, 2 or 3 inhibitor concentrations
Sequence of p97 ATPase (P55072 whole entry): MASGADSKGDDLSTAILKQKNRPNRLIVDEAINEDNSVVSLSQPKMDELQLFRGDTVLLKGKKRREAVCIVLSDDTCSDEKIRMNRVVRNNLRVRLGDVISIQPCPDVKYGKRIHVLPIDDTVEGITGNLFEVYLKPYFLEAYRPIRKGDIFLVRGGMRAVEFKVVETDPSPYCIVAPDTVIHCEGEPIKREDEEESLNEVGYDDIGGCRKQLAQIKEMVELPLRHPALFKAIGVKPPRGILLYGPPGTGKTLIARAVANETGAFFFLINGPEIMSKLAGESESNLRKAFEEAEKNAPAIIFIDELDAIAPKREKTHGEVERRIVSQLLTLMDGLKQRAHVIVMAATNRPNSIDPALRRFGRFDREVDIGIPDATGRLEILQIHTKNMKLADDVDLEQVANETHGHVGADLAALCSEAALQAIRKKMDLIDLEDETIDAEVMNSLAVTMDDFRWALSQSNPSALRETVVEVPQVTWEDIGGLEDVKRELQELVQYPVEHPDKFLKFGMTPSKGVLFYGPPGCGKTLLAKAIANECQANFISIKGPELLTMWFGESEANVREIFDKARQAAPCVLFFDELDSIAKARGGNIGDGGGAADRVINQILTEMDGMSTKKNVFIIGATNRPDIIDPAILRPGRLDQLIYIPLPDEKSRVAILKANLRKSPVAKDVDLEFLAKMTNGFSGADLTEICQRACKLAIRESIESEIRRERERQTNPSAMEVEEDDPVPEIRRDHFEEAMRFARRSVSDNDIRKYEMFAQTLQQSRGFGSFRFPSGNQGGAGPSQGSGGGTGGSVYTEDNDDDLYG

seven cancer lines = assay: Cancer cell proliferation assay; type: cell-based; conditions: for IC50: read-out: IC50 for inhibition of proliferation
[4] = test system: CB-R-HCT116 cells (p97 D649A/T688A); assay: Cell proliferation, CB-5083 resistant HCT116 versus parental HCT116; type: cell-based; conditions: for sensitivity of CB-R-HCT116 compared with parental HCT116: cell proliferation
A549 cells [5] = test system: A549 cells
A549 cells [6] = assay: Intracellular compound concentration determination
[7] = test system: CB-5083 resistant p97 mutants; assay: p97 ATPase activity assay, panel of CB-5083 resistant mutants; type: biochemical; conditions: among CB-5083 resistant mutants
CB-R-HCT116 cells = assay: Western blot of UPR / p97 inhibition biomarkers, CB-R-HCT116; type: cell-based; conditions: CB-R-HCT116, 10 μM, 6 hours
HCT116 cells = conditions: HCT116, 2.5 μM, 6 hours

T1 sequence (P55072 whole entry): as above
Sequence of p97 T688A mutant (P55072 whole entry T688A): as the sequence (P55072 whole entry) above, with T688A counted along it

SMILES	IC50 increase toward D649A/T688A vs WT p97 [2]	mechanism of inhibition (p97 ATPase)	sensitivity of CB-R-HCT116 compared with parental HCT116 [4]	mutants most resistant to inhibition [7]	IC50 (seven cancer lines)	other results
CC(C)N1CCN(CCNC2CCN(c3cccc(-c4cc5cc(F)ccc5[nH]4)c3)CC2)CC1 [UPCDC-30245]	2 fold	noncompetitive inhibition	similarly sensitive	–	–	fold less potent than NMS-873 in the ATPase activity assay (WT p97 [1]; WT p97): 12 fold; IC50 (WT p97 [1]; read-out: IC50 toward WT p97 ATPase activity, biochemical assay): 300 nM; fold resistance of T688A (IC50 increase vs WT) (p97 T688A mutant): 3 fold; effect on Tm of WT, N660K and T688A p97 (WT p97 [3]): did not stabilize WT or either mutant p97 protein; potency at inhibiting cell proliferation compared with NMS-873 (seven cancer lines; HT29 cells): more potent; intracellular concentration reached (A549 cells [5]): millimolar; time to steady-state intracellular concentration (A549 cells [5]): 3 h; intracellular concentration relative to NMS-873 (A549 cells [6]; 5 μM): 12 fold
COc1cccc2c(NCc3ccccc3)nc(-n3c(N)nc4ccccc43)nc12 [ML240]	–	–	–	N660K and T688A are the most resistant	–	–
c1ccc(CNc2nc(N3CCOc4ccccc43)nc3c2CCCC3)cc1 [ML241]	–	–	–	N660K and T688A are the most resistant	–	–
Cc1cc(OCc2nnc(SC3CCCC3)n2-c2cccnc2)ccc1-c1ccc(S(C)(=O)=O)cc1 [NMS-873]	–	noncompetitive inhibitor	slightly more sensitive	–	500 to 4000 nM	intracellular concentration reached (A549 cells [6]): millimolar
Cc1cc2c(C(N)=O)cccc2n1-c1nc2c(c(NCc3ccccc3)n1)COCC2 [CB-5083]	about 400 fold	–	unaffected	N660K and T688A are the most resistant	500 to 4000 nM	inhibition of proliferation ([4]; CB-R-HCT116, 10.5 μM): only slightly inhibited; changes in biomarkers (K48 ubiquitination, ATF4, CHOP, p62) (CB-R-HCT116 cells): no effects on these biomarkers; changes in biomarkers (K48 ubiquitination, ATF4, CHOP, p62) (HCT116 cells): accumulation of K48 ubiquitination, ATF4 and CHOP
